Experimental data from paper PMC6099886 (Proceedings of the National Academy of Sciences of the …, 2018).
Residue numbers refer to the chain shown, from its start. Names may count otherwise. Where two headings read alike, the source gives them in different places. One block for each molecule: values may come before it. *1 amine or outer side, *2 acyl side, *3 side chain or, on linkers, in order; H or OH if unused. Where a SMILES comes first, the peptide text is derived from it. Bridges are numbered along the chain shown (N, C = ends). Roman numbers before positions name the chains, in order. [ ]: non-standard residue; d: D form. Actinocin(9to1) = Cc1c2oc3c(C)ccc(C(=O)[*:1])c3nc-2c(C(=O)[*:2])c(N)c1=O; NMeV = CN[C@H](C(=O)O)C(C)C; Sar = CNCC(=O)O

Key:
[1] = cited from earlier work
DDR2 = settings: cited from earlier work
DDR2-His = biological target: T1, DDR2-His (Homo sapiens, UniProt Q16832); assay: Solid-phase binding assay of DDR2-His; settings: 25 nM DDR2-His, collagen peptide
T1 sequence (Q16832 22-398): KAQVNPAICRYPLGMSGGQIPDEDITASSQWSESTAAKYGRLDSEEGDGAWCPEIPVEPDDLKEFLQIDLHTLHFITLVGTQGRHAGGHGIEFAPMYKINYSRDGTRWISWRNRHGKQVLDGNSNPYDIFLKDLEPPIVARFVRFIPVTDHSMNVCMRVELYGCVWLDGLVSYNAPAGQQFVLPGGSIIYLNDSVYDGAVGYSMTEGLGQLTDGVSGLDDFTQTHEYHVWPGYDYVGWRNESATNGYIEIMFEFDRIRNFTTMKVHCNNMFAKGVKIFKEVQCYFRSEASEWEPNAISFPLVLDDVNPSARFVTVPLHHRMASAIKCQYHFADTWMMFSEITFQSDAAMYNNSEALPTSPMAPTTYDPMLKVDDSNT

4T1 GFP/luc cells = assay: Lung colonization after tail vein injection of 4T1 GFP/luc cells in BALB/cJ mice; type: in vivo, mouse; settings: treated daily, 7 d
[2] = biological target: the molecule itself
cross-linking = biological target: the molecule itself; assay: cross-linking
SEC = biological target: the molecule itself; assay: SEC

DDR2 inhibition in ECD solid-phase binding assay (in words) (DDR2-His): inhibits DDR2
Molecule: Cc1c2oc3c(C)ccc(C(=O)N[C@@H]4C(=O)N[C@H](C(C)C)C(=O)N5CCC[C@H]5C(=O)N(C)CC(=O)N(C)[C@@H](C(C)C)C(=O)O[C@@H]4C)c3nc-2c(C(=O)N[C@@H]2C(=O)N[C@H](C(C)C)C(=O)N3CCC[C@H]3C(=O)N(C)CC(=O)N(C)[C@@H](C(C)C)C(=O)O[C@@H]2C)c(N)c1=O [actinomycin D] (I: T[dV]P[Sar][NMeV] / II: T[dV]P[Sar][NMeV]; ester I:1-I:C, II:1-II:C; linker I:N-II:N via Actinocin(9to1))
toxicity profile [1]: high toxicity profile
DDR2 inhibition in previous in vitro screen (DDR2): weak inhibitor

DDR2 inhibition in ECD solid-phase binding assay (in words) (DDR2-His): inactive
Molecule: Nc1c(C(=O)O)c2nc3c(C(=O)O)cccc3oc-2cc1=O [cinnabarinic acid]
lung colonization by 4T1 GFP/luc cells (4T1 GFP/luc cells): no effect

B1: DDR2 F96A/T98A expressed as a full-length receptor in HEK293 cells (receptor, UniProt Q16832 22-855, looked up)
chain: KAQVNPAICRYPLGMSGGQIPDEDITASSQWSESTAAKYGRLDSEEGDGAWCPEIPVEPDDLKEFLQIDLHTLHAIALVGTQGRHAGGHGIEFAPMYKINYSRDGTRWISWRNRHGKQVLDGNSNPYDIFLKDLEPPIVARFVRFIPVTDHSMNVCMRVELYGCVWLDGLVSYNAPAGQQFVLPGGSIIYLNDSVYDGAVGYSMTEGLGQLTDGVSGLDDFTQTHEYHVWPGYDYVGWRNESATNGYIEIMFEFDRIRNFTTMKVHCNNMFAKGVKIFKEVQCYFRSEASEWEPNAISFPLVLDDVNPSARFVTVPLHHRMASAIKCQYHFADTWMMFSEITFQSDAAMYNNSEALPTSPMAPTTYDPMLKVDDSNTRILIGCLVAIIFILLAIIVIILWRQFWQKMLEKASRRMLDDEMTVSLSLPSDSSMFNNNRSSSPSEQGSNSTYDRIFPLRPDYQEPSRLIRKLPEFAPGEEESGCSGVVKPVQPSGPEGVPHYAEADIVNLQGVTGGNTYSVPAVTMDLLSGKDVAVEEFPRKLLTFKEKLGEGQFGEVHLCEVEGMEKFKDKDFALDVSANQPVLVAVKMLRADANKNARNDFLKEIKIMSRLKDPNIIHLLAVCITDDPLCMITEYMENGDLNQFLSRHEPPNSSSSDVRTVSYTNLKFMATQIASGMKYLSSLNFVHRDLATRNCLVGKNYTIKIADFGMSRNLYSGDYYRIQGRAVLPIRWMSWESILLGKFTTASDVWAFGVTLWETFTFCQEQPYSQLSDEQVIENTGEFFRDQGRQTYLPQPAICPDSVYKLMLSCWRRDTKNRPSFQEIHLLLLQQGDE
stoichiometry N [2]: 2

B2: full-length DDR2 expressed in HEK293 cells (receptor, UniProt Q16832 22-855, looked up)
chain: B1 chain with A75F, A77T
stoichiometry N (cross-linking): 2

B3: DDR2 F96A/T98A double mutant ECD, His-tagged (domain or fragment, UniProt Q16832 22-399, looked up)
chain: KAQVNPAICRYPLGMSGGQIPDEDITASSQWSESTAAKYGRLDSEEGDGAWCPEIPVEPDDLKEFLQIDLHTLHAIALVGTQGRHAGGHGIEFAPMYKINYSRDGTRWISWRNRHGKQVLDGNSNPYDIFLKDLEPPIVARFVRFIPVTDHSMNVCMRVELYGCVWLDGLVSYNAPAGQQFVLPGGSIIYLNDSVYDGAVGYSMTEGLGQLTDGVSGLDDFTQTHEYHVWPGYDYVGWRNESATNGYIEIMFEFDRIRNFTTMKVHCNNMFAKGVKIFKEVQCYFRSEASEWEPNAISFPLVLDDVNPSARFVTVPLHHRMASAIKCQYHFADTWMMFSEITFQSDAAMYNNSEALPTSPMAPTTYDPMLKVDDSNTR
stoichiometry N (SEC): 2
